According to PubChem BioAssay (NCI):
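GI50 = concentration required for 50% inhibition of growth. At the TGI there is no net growth.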

Tests used:
Assay in all cases: NCI tumour cell line growth inhibition, 384-well format
786-0 renal = system: 786-0 renal
ACHN renal = system: ACHN renal
BT-549 breast = system: BT-549 breast
CCRF-CEM leukemia = system: CCRF-CEM leukemia
HCT-15 colon = system: HCT-15 colon
HL-60(TB) leukemia = system: HL-60(TB) leukemia
HOP-62 NSCLC = system: HOP-62 NSCLC
HOP-92 NSCLC = system: HOP-92 NSCLC
HS 578T breast = system: HS 578T breast
HT29 colon = system: HT29 colon
K-562 leukemia = system: K-562 leukemia
KM12 colon = system: KM12 colon
LOX IMVI melanoma = system: LOX IMVI melanoma
M14 melanoma = system: M14 melanoma
MALME-3M melanoma = system: MALME-3M melanoma
MCF7 breast = system: MCF7 breast
MDA-MB-231 breast = system: MDA-MB-231 breast
MDA-MB-468 breast = system: MDA-MB-468 breast
MOLT-4 leukemia = system: MOLT-4 leukemia
NCI-H226 lung = system: NCI-H226 lung
NCI-H23 lung = system: NCI-H23 lung
NCI-H322M lung = system: NCI-H322M lung
NCI-H460 NSCLC = system: NCI-H460 NSCLC
NCI/ADR-RES ovarian = system: NCI/ADR-RES ovarian
OVCAR-3 ovarian = system: OVCAR-3 ovarian
OVCAR-4 ovarian = system: OVCAR-4 ovarian
OVCAR-5 ovarian = system: OVCAR-5 ovarian
OVCAR-8 ovarian = system: OVCAR-8 ovarian
PC-3 prostate = system: PC-3 prostate
RPMI-8226 leukemia = system: RPMI-8226 leukemia
RXF 393 renal = system: RXF 393 renal
SF-295 CNS = system: SF-295 CNS
SF-539 CNS = system: SF-539 CNS
SK-MEL-28 melanoma = system: SK-MEL-28 melanoma
SK-MEL-5 melanoma = system: SK-MEL-5 melanoma
SK-OV-3 ovarian = system: SK-OV-3 ovarian
SN12C renal = system: SN12C renal
SNB-19 CNS = system: SNB-19 CNS
SNB-75 CNS = system: SNB-75 CNS
SR leukemia = system: SR leukemia
SW-620 colon = system: SW-620 colon
T-47D breast = system: T-47D breast
TK-10 renal = system: TK-10 renal
U251 glioblastoma = system: U251 glioblastoma
UACC-257 melanoma = system: UACC-257 melanoma
UACC-62 melanoma = system: UACC-62 melanoma
UO-31 renal = system: UO-31 renal

c1cn2cc(-c3ccc4cn[nH]c4c3)nc(Nc3ccc(N4CCOCC4)cc3)c2n1 showed a GI50 ([…]-0 renal) of 8.76 µM, a TGI (786-0 renal) of 21.1 µM and a GI50 (ACHN renal) of 10.7 µM. For the same compound, the TGI (ACHN renal) was 25.1 µM, the GI50 (BT-549 breast) was 11.2 µM and the TGI (BT-549 breast) was 23.5 µM. The GI50 (CCRF-CEM leukemia) was over 100 µM, the TGI (CCRF-CEM leukemia) was over 100 µM and the GI50 (HCT-15 colon) was 19.4 µM. For the same compound, the TGI (HCT-15 colon) was over 100 µM, the GI50 (HL-60(TB) leukemia) was over 100 µM and the TGI (HL-60(TB) leukemia) was over 100 µM. The GI50 (HOP-62 NSCLC) was 9.54 µM, the TGI (HOP-62 NSCLC) was 22.2 µM and the GI50 (HOP-92 NSCLC) was 5.8 µM. The TGI (HOP-92 NSCLC) was 19.1 µM, the GI50 (HS 578T breast) was 1.87 µM and the TGI (HS 578T breast) was 8.11 µM. For the same compound, the GI50 (HT29 colon) was 28.1 µM, the TGI (HT29 colon) was over 100 µM and the GI50 (K-562 leukemia) was over 100 µM. The TGI (K-562 leukemia) was over 100 µM, the GI50 (KM12 colon) was 0.527 µM and the TGI (KM12 colon) was 25 µM. The GI50 (LOX IMVI melanoma) was 15.4 µM, the TGI (LOX IMVI melanoma) was 36.6 µM and the GI50 (M14 melanoma) was 23.5 µM. It also gave a TGI (M14 melanoma) of 86.6 µM, a GI50 (MALME-3M melanoma) of 6.24 µM and a TGI (MALME-3M melanoma) of 19.4 µM. The GI50 (MCF7 breast) was 8.62 µM, the TGI (MCF7 breast) was 30.2 µM and the GI50 (MDA-MB-231 breast) was 10.1 µM. It also gave a TGI (MDA-MB-231 breast) of 21.9 µM, a GI50 (MDA-MB-468 breast) of 16.1 µM and a TGI (MDA-MB-468 breast) of 57.1 µM. The GI50 (MOLT-4 leukemia) was 48 µM, the TGI (MOLT-4 leukemia) was over 100 µM and the GI50 (NCI-H226 lung) was 9.38 µM. For the same compound, the TGI (NCI-H226 lung) was 23 µM, the GI50 (NCI-H23 lung) was 10.8 µM and the TGI (NCI-H23 lung) was 25.7 µM. For the same compound, the GI50 (NCI-H322M lung) was 12.3 µM, the TGI (NCI-H322M lung) was 37.5 µM and the GI50 (NCI-H460 NSCLC) was 11.1 µM. For the same compound, the TGI (NCI-H460 NSCLC) was 24.6 µM, the GI50 (NCI/ADR-RES ovarian) was 11.7 µM and the TGI (NCI/ADR-RES ovarian) was 29.6 µM. For the same compound, the GI50 (OVCAR-3 ovarian) was 12.7 µM, the TGI (OVCAR-3 ovarian) was 28.3 µM and the GI50 (OVCAR-4 ovarian) was 6.52 µM. For the same compound, the TGI (OVCAR-4 ovarian) was 20 µM, the GI50 (OVCAR-5 ovarian) was 12.8 µM and the TGI (OVCAR-5 ovarian) was 30.3 µM. It also gave a GI50 (OVCAR-8 ovarian) of 4.82 µM, a TGI (OVCAR-8 ovarian) of 17.1 µM and a GI50 (PC-3 prostate) of 14.1 µM. It also gave a TGI (PC-3 prostate) of 28.7 µM, a GI50 (RPMI-8226 leukemia) of 16.9 µM and a TGI (RPMI-8226 leukemia) of over 58.6 µM. The GI50 (RXF 393 renal) was 2.44 µM, the TGI (RXF 393 renal) was 13.3 µM and the GI50 (SF-295 CNS) was 13.7 µM. It also gave a TGI (SF-295 CNS) of 27.4 µM, a GI50 (SF-539 CNS) of 4.6 µM and a TGI (SF-539 CNS) of 16.5 µM. For the same compound, the GI50 (SK-MEL-28 melanoma) was 12.4 µM, the TGI (SK-MEL-28 melanoma) was 29.6 µM and the GI50 (SK-MEL-5 melanoma) was 11.3 µM. The TGI (SK-MEL-5 melanoma) was 32.8 µM, the GI50 (SK-OV-3 ovarian) was 5.35 µM and the TGI (SK-OV-3 ovarian) was 19.3 µM. It also gave a GI50 (SN12C renal) of 10 µM, a TGI (SN12C renal) of 22.6 µM and a GI50 (SNB-19 CNS) of 8.81 µM. For the same compound, the TGI (SNB-19 CNS) was 21.4 µM, the GI50 (SNB-75 CNS) was 2.15 µM and the TGI (SNB-75 CNS) was 9.11 µM. It also gave a GI50 (SR leukemia) of 5.01 µM, a TGI (SR leukemia) of 14.5 µM and a GI50 (SW-620 colon) of 33.1 µM. The TGI (SW-620 colon) was over 100 µM, the GI50 (T-47D breast) was 3.73 µM and the TGI (T-47D breast) was 21.2 µM. For the same compound, the GI50 (TK-10 renal) was 5.67 µM, the TGI (TK-10 renal) was 22 µM and the GI50 (U251 glioblastoma) was 9.72 µM. The TGI (U251 glioblastoma) was 25.4 µM, the GI50 (UACC-257 melanoma) was 11.5 µM and the TGI (UACC-257 melanoma) was 27.6 µM. For the same compound, the GI50 (UACC-62 melanoma) was 7.97 µM, the TGI (UACC-62 melanoma) was 20.9 µM and the GI50 (UO-31 renal) was 12.4 µM. The TGI (UO-31 renal) was 32 µM.

Work on C=CC(=O)N[C@H]1CCOC[C@H]1Nc1ncc2cc(-c3c(Cl)c(OC)cc(OC)c3Cl)ccc2n1 yielded a GI50 ([…]-0 renal) of 16.5 µM, a TGI (786-0 renal) of 50.1 µM and a GI50 (ACHN renal) of 30.6 µM. For the same compound, the TGI (ACHN renal) was over 100 µM, the GI50 (BT-549 breast) was 4.77 µM and the TGI (BT-549 breast) was 19.5 µM. The GI50 (CCRF-CEM leukemia) was 9.81 µM, the TGI (CCRF-CEM leukemia) was 22.2 µM and the GI50 (HCT-15 colon) was 11.4 µM. The TGI (HCT-15 colon) was 35.5 µM, the GI50 (HL-60(TB) leukemia) was 9.62 µM and the TGI (HL-60(TB) leukemia) was 22.7 µM. It also gave a GI50 (HOP-62 NSCLC) of 20.4 µM, a TGI (HOP-62 NSCLC) of 57.2 µM and a GI50 (HOP-92 NSCLC) of 7.37 µM. It also gave a TGI (HOP-92 NSCLC) of 28.2 µM, a GI50 (HS 578T breast) of 12 µM and a TGI (HS 578T breast) of 27.9 µM. The GI50 (HT29 colon) was 14 µM, the TGI (HT29 colon) was 96.2 µM and the GI50 (K-562 leukemia) was 7.1 µM. For the same compound, the TGI (K-562 leukemia) was 26.9 µM, the GI50 (KM12 colon) was 19.2 µM and the TGI (KM12 colon) was 47.7 µM. The GI50 (LOX IMVI melanoma) was 13 µM, the TGI (LOX IMVI melanoma) was 27.3 µM and the GI50 (M14 melanoma) was 16.8 µM. The TGI (M14 melanoma) was over 69.2 µM, the GI50 (MALME-3M melanoma) was over 53.7 µM and the TGI (MALME-3M melanoma) was over 100 µM. For the same compound, the GI50 (MCF7 breast) was 11.9 µM, the TGI (MCF7 breast) was 46.4 µM and the GI50 (MDA-MB-231 breast) was 9.96 µM. For the same compound, the TGI (MDA-MB-231 breast) was over 78.7 µM, the GI50 (MDA-MB-468 breast) was 3.37 µM and the TGI (MDA-MB-468 breast) was 13.9 µM. It also gave a GI50 (MOLT-4 leukemia) of 2.59 µM, a TGI (MOLT-4 leukemia) of 14.8 µM and a GI50 (NCI-H226 lung) of 4.55 µM. It also gave a TGI (NCI-H226 lung) of 20.8 µM, a GI50 (NCI-H23 lung) of 16.9 µM and a TGI (NCI-H23 lung) of 63.9 µM. The GI50 (NCI-H322M lung) was 27.7 µM, the TGI (NCI-H322M lung) was over 100 µM and the GI50 (NCI-H460 NSCLC) was 11.8 µM. For the same compound, the TGI (NCI-H460 NSCLC) was 25.7 µM, the GI50 (NCI/ADR-RES ovarian) was 12.9 µM and the TGI (NCI/ADR-RES ovarian) was 30.8 µM. It also gave a GI50 (OVCAR-3 ovarian) of 13.9 µM, a TGI (OVCAR-3 ovarian) of 34 µM and a GI50 (OVCAR-4 ovarian) of 14.9 µM. The TGI (OVCAR-4 ovarian) was 54.1 µM, the GI50 (OVCAR-5 ovarian) was 27.5 µM and the TGI (OVCAR-5 ovarian) was over 88.4 µM. For the same compound, the GI50 (OVCAR-8 ovarian) was 16 µM, the TGI (OVCAR-8 ovarian) was 35.1 µM and the GI50 (PC-3 prostate) was 20.3 µM. For the same compound, the TGI (PC-3 prostate) was 66.2 µM, the GI50 (RPMI-8226 leukemia) was 4.12 µM and the TGI (RPMI-8226 leukemia) was 15 µM. The GI50 (RXF 393 renal) was 8.65 µM, the TGI (RXF 393 renal) was 26.2 µM and the GI50 (SF-295 CNS) was 28.1 µM. For the same compound, the TGI (SF-295 CNS) was over 86.7 µM, the GI50 (SF-539 CNS) was 13.5 µM and the TGI (SF-539 CNS) was 28.2 µM. It also gave a GI50 (SK-MEL-28 melanoma) of 35.6 µM, a TGI (SK-MEL-28 melanoma) of over 100 µM and a GI50 (SK-MEL-5 melanoma) of 10.9 µM. The TGI (SK-MEL-5 melanoma) was 23.6 µM, the GI50 (SK-OV-3 ovarian) was 19.4 µM and the TGI (SK-OV-3 ovarian) was 63.4 µM. For the same compound, the GI50 (SN12C renal) was 15.4 µM, the TGI (SN12C renal) was 75 µM and the GI50 (SNB-19 CNS) was 19.2 µM. It also gave a TGI (SNB-19 CNS) of 55.7 µM, a GI50 (SNB-75 CNS) of 6.99 µM and a TGI (SNB-75 CNS) of 33.5 µM. It also gave a GI50 (SR leukemia) of 5.39 µM, a TGI (SR leukemia) of 19 µM and a GI50 (SW-620 colon) of 19 µM. The TGI (SW-620 colon) was over 52.5 µM, the GI50 (T-47D breast) was 5.24 µM and the TGI (T-47D breast) was 23 µM. For the same compound, the GI50 (TK-10 renal) was 20.9 µM, the TGI (TK-10 renal) was over 95.6 µM and the GI50 (U251 glioblastoma) was 15 µM. For the same compound, the TGI (U251 glioblastoma) was 36.1 µM, the GI50 (UACC-257 melanoma) was 13.9 µM and the TGI (UACC-257 melanoma) was 38.8 µM. For the same compound, the GI50 (UACC-62 melanoma) was 10.7 µM, the TGI (UACC-62 melanoma) was 25.1 µM and the GI50 (UO-31 renal) was 23.3 µM. It also gave a TGI (UO-31 renal) of 98 µM.
